According to ChEMBL document CHEMBL1156829 (Proc Natl Acad Sci U S A, 2008):

Experiments:
[1] = tested on: Plasmodium falciparum; test: NOVARTIS: Inhibition of Plasmodium falciparum 3D7 (drug-susceptible) proliferation in erythrocyte-based infection assay; assay type: functional, organism-based; details: Plasmodium falciparum, 3D7
[2] = tested on: Plasmodium falciparum; test: NOVARTIS: Inhibition of Plasmodium falciparum W2 (drug-resistant) proliferation in erythrocyte-based infection assay; assay type: functional, organism-based; details: Plasmodium falciparum, W2; read-out: EC50
[3] = NOVARTIS: Cytotoxicity against human hepatocellular carcinoma cell line (Huh7); assay type: toxicity, cell-based, Huh-7; details: Huh7 cells (hepatocellular carcinoma cell line)

| SMILES | EC50 [1] [nM] | EC50 [2] [nM] | CC50 [3] [nM] |
| --- | --- | --- | --- |
| CC1(C)CC(=O)C2=C(C1)NC(=O)CC2c1ccc(C(C)(C)C)cc1 (stereo unspecified) | > 1250 | > 1010 | > 10000 |
| N#C/C(=C\c1cc2ccccc2nc1Cl)c1nc(-c2ccc(Cl)c(Cl)c2)cs1 | > 1250 | > 1010 | > 10000 |
| COc1ccc(/C=C2\SC(=O)NC2=Nc2ccccc2)c(OC)c1 | 1100 | 1010 | > 10000 |
| CCCCCCN(C(=O)c1ccc(C(C)(C)C)cc1)C(CC)c1nc2cc(Cl)ccc2c(=O)n1CC (stereo unspecified) | 954 | 1010 | > 10000 |
| CCN1CCC(N2CCC(n3c(C4CCC4)nc4cc(F)ccc43)CC2)CC1 | 453 | 2170 | 21500 |
| COC(=O)C1=C(C)N/C(=C\c2cc(C)n(-c3cc(Cl)ccc3Cl)c2C)C1=O | 1520 | 1010 | > 10000 |
| COc1ccc2oc(=O)c(C(=O)N(C)c3ccc(S(N)(=O)=O)cc3)cc2c1 | > 1250 | > 1010 | > 10000 |
| CCCCN(C)C(=O)c1sc2ncn(CC(=O)N(CC)CC)c(=O)c2c1C | > 1250 | > 1010 | > 10000 |
| N#Cc1ccc(NC(=O)c2cc(Cl)ccc2O)cc1 | 1090 | 1010 | > 10000 |
| Cc1nc(N2CCN(C)CC2)c2c(C)c(C(=O)NCCN(C)C)sc2n1 | > 1600 | > 1000 | > 10000 |
| CN(CC(=O)NC(C)(C)C)S(=O)(=O)c1ccccc1 | > 1250 | > 1000 | > 10000 |
| CS(=O)(=O)N(CCc1ccccc1)CC(O)CN1CCC(CNC(=O)NC(c2ccccc2)c2ccccc2)CC1 (stereo unspecified) | > 1530 | 1020 | > 10000 |
| CCCCOc1ccc(C(=O)Nc2c3c(nn2-c2ccc(C)cc2C)CSC3)cc1 | > 1520 | 1020 | > 10000 |
| CCN(CC)C(=O)c1ccc2c(=O)n(Cc3cccc(Br)c3)c(=S)[nH]c2c1 | > 1250 | 1020 | > 10000 |
| C=C(C)C(=O)OCCc1ccc(O)c(-n2nc3ccccc3n2)c1 | > 1250 | 1010 | > 10000 |
| CC(=O)O[C@]1(C(C)=O)CCC2C3C=CC4=CC(=O)CC[C@]4(C)C3CC[C@@]21C (stereo partly specified) | > 1210 | 1010 | > 10000 |
| CC(C)CC1C(c2ccc(Cl)cc2)C(C(=O)c2ccccc2)C2(C(=O)Nc3ccc(Br)cc32)N1C(=O)NCc1ccccc1 (stereo unspecified) | 775 | > 1020 | > 10000 |
| c1cc(NCc2ccc3c(c2)OCO3)n2ncc(-c3ccoc3)c2n1 | > 1250 | > 1020 | > 10000 |
| CC1(C)Cc2c(sc(NC(=O)CCl)c2C#N)CO1 | 2040 | 2080 | 20500 |
| Cc1ccc(-n2c(SCc3cccc(C)c3)nnc2C(Cc2ccccc2)NC(=O)NC(C)(C)C)cc1 (stereo unspecified) | 735 | 1010 | > 10000 |
| CCC(CC)C(=O)N1CCOc2c(cc(-c3csc4ccccc34)cc2OCc2ccccn2)C1 | 1110 | 1010 | > 10000 |
| O=C(CC(=NNc1nc(NN=C(CC(=O)C(F)(F)F)C(F)(F)F)nc(N(c2ccccc2)c2ccccc2)n1)C(F)(F)F)C(F)(F)F | 670 | 1010 | > 10000 |
| COc1ccc(-c2csc3ncn(N)c(=O)c23)cc1 | > 1250 | > 1010 | > 10000 |
| CCCN(CC(=O)Nc1cc(C(C)(C)C)nn1-c1cccc(C)c1)C(=O)c1cccc([N+](=O)[O-])c1 | > 1630 | 1010 | > 10000 |
| O=C1c2cccc3cccc(c23)C(=O)N1c1ccc(-c2c3ccccc3c(-c3ccc(N4C(=O)c5cccc6cccc(c56)C4=O)cc3)c3ccccc23)cc1 | 1050 | 1000 | > 10000 |
| COc1ccc2[nH]c3c(=O)n(C)cnc3c2c1 | > 1410 | 1000 | > 10000 |
| Cc1ccc(-c2cc(C)[n+](C)c(-c3ccc(C)cc3)c2)cc1 | 313 | 763 | 7520 |
